These results are taken from PMC5200956 (ChemMedChem, 2016).

The test system of series [1] is T. gondii (tachyzoites). In words: T. gondii tachyzoites growth assay. It counts as cell-based, Toxoplasma gondii. Conditions: means ± SD, n = 3.
Series [2] deals with T. cruzi (amastigotes). In words: T. cruzi amastigote growth assay. It counts as cell-based, Trypanosoma cruzi. Conditions: for EC50: read-out: T. cruzi growth EC50, intracellular amastigotes, means ± SD, n = 3; for antiparasitic activity against T. cruzi (in words): amastigotes.
The nature of series [3]: Cytotoxicity for Vero cells. It counts as cell-based. Conditions: African green monkey.
Another series concerns the target TgFPPS. Put plainly: TgFPPS enzyme inhibition. It counts as biochemical, Toxoplasma gondii. Particulars: read-out: TgFPPS IC50; means ± SD, n = 3.
The next series addresses T1, HhFPPS (Homo sapiens, UniProt P14324).
T1 sequence (P14324 67-419 limits assumed): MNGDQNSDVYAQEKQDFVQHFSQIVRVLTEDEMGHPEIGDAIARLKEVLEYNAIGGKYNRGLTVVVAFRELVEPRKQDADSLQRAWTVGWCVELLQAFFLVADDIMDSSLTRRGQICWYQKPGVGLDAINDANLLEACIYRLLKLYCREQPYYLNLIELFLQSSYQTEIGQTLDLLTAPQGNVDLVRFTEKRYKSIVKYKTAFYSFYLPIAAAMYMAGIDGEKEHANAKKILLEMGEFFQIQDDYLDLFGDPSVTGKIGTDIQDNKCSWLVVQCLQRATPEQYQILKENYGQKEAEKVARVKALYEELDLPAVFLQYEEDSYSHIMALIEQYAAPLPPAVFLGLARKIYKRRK
In words: HhFPPS enzyme inhibition. Conditions: read-out: HhFPPS IC50; means ± SD, n = 3. It counts as biochemical.

A further series concerns Vero cells. Put plainly: Cytotoxicity for Vero cells. It is filed as cell-based. Conditions: read-out: Cytotoxicity EC50.
Another series concerns the target T2, TcFPPS (Trypanosoma cruzi, UniProt Q8WS26).
T2 sequence (Q8WS26 1-425): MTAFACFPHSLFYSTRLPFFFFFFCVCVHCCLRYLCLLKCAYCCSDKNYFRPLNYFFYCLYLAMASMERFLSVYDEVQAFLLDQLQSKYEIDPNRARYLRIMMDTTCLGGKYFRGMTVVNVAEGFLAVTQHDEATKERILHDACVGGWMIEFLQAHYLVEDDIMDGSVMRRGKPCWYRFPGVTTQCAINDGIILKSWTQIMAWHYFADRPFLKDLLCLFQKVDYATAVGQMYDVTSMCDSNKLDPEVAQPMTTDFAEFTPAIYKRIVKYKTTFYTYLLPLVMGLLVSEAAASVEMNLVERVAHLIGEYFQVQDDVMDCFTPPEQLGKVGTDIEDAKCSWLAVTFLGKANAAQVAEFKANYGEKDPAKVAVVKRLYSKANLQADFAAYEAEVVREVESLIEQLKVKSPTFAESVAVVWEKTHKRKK
Put plainly: TcFPPS enzyme inhibition. It counts as biochemical. Conditions: read-out: TcFPPS IC50; means ± SD, n = 3.

For series [4], the system named is T. cruzi squalene synthase (TcSQS). Conditions: cited from earlier work; for IC50: read-out: TcSQS IC50, enzymatic activity of TcSQS.
For series [5], the system named is T. gondii (tachyzoites). Conditions: read-out: T. gondii growth EC50; cited from earlier work.
The subject of series [6] is T. cruzi (amastigotes). Particulars: read-out: T. cruzi growth EC50; cited from earlier work.
[7] abbreviates: Toxoplasma gondii, read-out: T. gondii growth EC50, tachyzoites.
Where [8] appears, read: read-out: T. gondii growth EC50, tachyzoites.

Like-named read-outs stand apart in the source and are kept apart here. A value given as a limit tells only on which side of the number the result lay.

By EC50 is commonly meant the concentration giving half of the maximal effect. Regarding `N#CSCCOc1cccc(Oc2ccccc2F)c1` [Compound 20, 3-(2-Fluorophenoxy)phenoxyethyl Thiocyanate], the EC50 in the series with T. gondii (tachyzoites) [1] (setting [7]) is 3.1 µM; in the series with T. gondii (tachyzoites) [1] (setting [8]), 3.12 ± 0.37 µM; with T. cruzi (amastigotes) [2] it was 7.01 ± 0.51 µM; in series [3], above 60 µM.

With `N#CSCCOc1cccc(Oc2cccc(F)c2)c1` [Compound 21, 3-(3-Fluorophenoxy)phenoxyethyl Thiocyanate], the EC50 in the series on T. gondii (tachyzoites) [1] (setting [7]) was 1.6 µM; with T. gondii (tachyzoites) [1] (setting [8]) it was 1.63 ± 0.36 µM; in the series on T. cruzi (amastigotes) [2] it was 5.38 ± 0.82 µM; in [3] it was above 50 µM.

With `N#CSCCOc1cccc(Oc2ccc(F)cc2)c1` [Compound 22, 3-(4-Fluorophenoxy)phenoxyethyl Thiocyanate], the 50% effective concentration (EC50) in the series on T. gondii (tachyzoites) [1] (setting [7]) is 4.9 µM; in the series with T. gondii (tachyzoites) [1] (setting [8]), 4.92 ± 1.94 µM; in the series with T. cruzi (amastigotes) [2], 5.69 ± 0.47 µM; in series [3], above 55 µM.

For the molecule `N#CSCCOc1ccc(Oc2ccccc2F)cc1` [Compound 27, 4-(2-Fluorophenoxy)phenoxyethyl Thiocyanate], the EC50 with T. gondii (tachyzoites) [1] (setting [7]) was 4.5 µM; with T. gondii (tachyzoites) [1] (setting [8]), 4.54 ± 0.57 µM; in series [3], above 55 µM. For the same molecule, the “antiparasitic activity against T. cruzi (in words)” value (“antiparasitic activity” for short) with T. cruzi (amastigotes) [2] is listed as “devoid of antiparasitic activity”.

As to `N#CSCCOc1ccc(Oc2ccncc2)cc1` [Compound 31, 4-(4-pyridyl)oxyphenoxyethyl Thiocyanate], the figures for the concentration giving a half-maximal response (EC50) (with T. gondii (tachyzoites) [1] (setting [7]); in series [3]) were 7.9 µM and above 200 µM, respectively. The “antiparasitic activity” value in the series with T. cruzi (amastigotes) [2] was “free of antiparasitic activity”.

As usually defined, the IC50 is the concentration that gives 50% inhibition. Turning to `O=P(O)(O)C(CNCCOc1ccc(Oc2ccccc2)cc1)P(=O)(O)O` [Compound 43, 1-[(4-Phenoxyphenoxyethylamino)ethyl]-1,1-bisphosphonic Acid], the EC50 in the series on T. gondii (tachyzoites) [1] (setting [8]) was 5.9 ± 0.07 µM; in the series on T. cruzi (amastigotes) [2] it was above 10 µM; in the series with Vero cells, above 100 µM. Moreover, the IC50 was 0.094 ± 0.02 µM on TgFPPS and above 10 µM on HhFPPS.

For `O=P(O)(O)C(CSCCOc1ccc(Oc2ccccc2)cc1)P(=O)(O)O` [Compound 48], the EC50 in the series with T. gondii (tachyzoites) [1] (setting [8]) is above 10 µM; with T. cruzi (amastigotes) [2], above 20 µM; in the series with Vero cells it was above 200 µM. For the same molecule, the figures for the concentration for half-maximal inhibition (IC50) at TgFPPS, on TcFPPS and at HhFPPS were 0.362 ± 0.002 µM, 0.8 ± 0.12 µM and above 15 µM, respectively.

Consider `O=P(O)(O)C(CNCCOc1cccc(Oc2ccccc2)c1)P(=O)(O)O` [Compound 53, 1-[(3-Phenoxyphenoxyethylamino)ethyl]-1,1-bisphosphonic Acid], for which the EC50 in the series on T. gondii (tachyzoites) [1] (setting [8]) is 2.4 ± 0.7 µM; with T. cruzi (amastigotes) [2] it was above 10 µM; in the series on Vero cells, above 50 µM. Also, the values for the IC50 at TgFPPS, at TcFPPS and on HhFPPS were 0.04 ± 0.002 µM, above 10 µM and above 10 µM, respectively. Besides, in the series with T. cruzi (amastigotes) [2], the “antiparasitic activity” value is “devoid of activity”.

For the molecule `O=P(O)(O)C(CSCCOc1cccc(Oc2ccccc2)c1)P(=O)(O)O` [Compound 58, 2-[3-(Phenoxy)phenoxyethylthio]ethyl-1,1-bisphosphonic Acid], the EC50 in the series on T. gondii (tachyzoites) [1] (setting [8]) is 0.67 ± 0.23 µM; in the series on T. gondii (tachyzoites) [1] (read-out: T. gondii growth EC50, tachyzoites, listed as 2-[3-(phenoxy)phenoxyethylthio]ethyl-1,1-bisphosphonate), 0.7 µM; with T. cruzi (amastigotes) [2], above 10 µM; in the series on Vero cells, above 100 µM. Also, the values for the IC50 on TgFPPS and at HhFPPS were 0.076 ± 0.019 µM and above 10 µM, respectively. The “antiparasitic activity” value with T. cruzi (amastigotes) [2] was “devoid of activity”.

Turning to `O=P(O)(O)C(CNCCOc1ccccc1)P(=O)(O)O` [Compound 63, 1-[(Phenoxyethylamino)ethyl]-1,1-bisphosphonic Acid], the EC50 in the series with T. gondii (tachyzoites) [1] (setting [8]) and in the series on T. cruzi (amastigotes) [2] was above 10 µM throughout. Besides, the figures for the IC50 on TgFPPS, on TcFPPS and at HhFPPS were 0.18 ± 0.015 µM, 0.32 ± 0.04 µM and above 10 µM, respectively.

Take `N#CSCCOc1ccc2ccccc2c1` [Compound 68, 2-(Naphthalen-2-yloxy)ethyl Thiocyanate]: the EC50 in the series on T. gondii (tachyzoites) [1] (setting [7]) was 3.6 µM. Besides, the “antiparasitic activity” value in the series on T. cruzi (amastigotes) [2] is on record as “vanishing inhibitory action”.

On to `N#CSCCOc1cccc2ccccc12` [Compound 73, 2-(Naphthalen-1-yloxy)ethyl Thiocyanate], for which the values for the EC50 (in the series with T. gondii (tachyzoites) [1] (setting [7]); in [3]) were 3.1 µM and 7.5 µM, respectively. In addition, in the series on T. cruzi (amastigotes) [2], the “antiparasitic activity” value is “vanishing inhibitory action”.

As to `CO[C@@H]1CN(c2ccc(C#C[C@]3(O)CN4CCC3CC4)c(Cc3ccccc3)n2)C[C@@H]1O` [Compound E5700], in series [4], the “type of inhibition of TcSQS” value is “mixed-type” and the IC50 was 0.00084 µM.

Consider `COCCCOc1ccc(C#C[C@@]2(O)CN3CCC2CC3)c(Cc2ccccc2)n1` [ER-119884], for which, in [4], the “type of inhibition of TcSQS” value was “non-competitive” and the IC50 is 0.0035 µM.

As to `N#CSCCOc1ccc(Oc2ccccc2)cc1` [WC-9, 4-Phenoxyphenoxyethyl thiocyanate], the EC50 in the series with T. gondii (tachyzoites) [5] was 4.8 ± 0.41 µM; in the series on T. cruzi (amastigotes) [6], 5 ± 1.1 µM. Moreover, the “type of inhibition of TcSQS” value in [4] is listed as “non-competitive”.
